From PubChem BioAssay (NCI)
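Values below derive from 48-hour exposures of cells grown in 96-well plates, with endpoints linearly interpolated between the two concentrations bracketing the appropriate inhibition level. TGI marks complete inhibition of growth.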

Columns and labels:
Assay in all cases: inhibition of tumour cell growth, NCI panel, 48 h
[1] = test system: 786-0 renal
[2] = test system: A498 renal
[3] = test system: A549 NSCLC
[4] = test system: ACHN renal
[5] = test system: BT-549 breast
[6] = test system: CAKI-1 renal
[7] = test system: CCRF-CEM leukemia
[8] = test system: COLO 205 colon
[9] = test system: DU-145 prostate
[10] = test system: EKVX NSCLC
[11] = test system: HCC-2998 colon
[12] = test system: HCT-116 colon
[13] = test system: HCT-15 colon
[14] = test system: HL-60(TB) leukemia
[15] = test system: HOP-62 NSCLC
[16] = test system: HOP-92 NSCLC
[17] = test system: HS 578T breast
[18] = test system: HT29 colon
[19] = test system: K-562 leukemia
[20] = test system: KM12 colon
[21] = test system: LOX IMVI melanoma
[22] = test system: M14 melanoma
[23] = test system: MALME-3M melanoma
[24] = test system: MCF7 breast
[25] = test system: MDA-MB-231 breast
[26] = test system: MDA-MB-435
[27] = test system: MDA-N
[28] = test system: MOLT-4 leukemia
[29] = test system: NCI-H226 lung
[30] = test system: NCI-H23 lung
[31] = test system: NCI-H460 lung
[32] = test system: NCI-H522 lung
[33] = test system: NCI/ADR-RES ovarian
[34] = test system: OVCAR-3 ovarian
[35] = test system: OVCAR-4 ovarian
[36] = test system: OVCAR-5 ovarian
[37] = test system: OVCAR-8 ovarian
[38] = test system: PC-3 prostate
[39] = test system: SF-268 CNS
[40] = test system: SF-295 CNS
[41] = test system: SF-539 CNS
[42] = test system: SK-MEL-2 melanoma
[43] = test system: SK-MEL-28 melanoma
[44] = test system: SK-MEL-5 melanoma
[45] = test system: SK-OV-3 ovarian
[46] = test system: SN12C renal
[47] = test system: SNB-19 CNS
[48] = test system: SNB-75 CNS
[49] = test system: SR leukemia
[50] = test system: SW-620 colon
[51] = test system: T-47D breast
[52] = test system: TK-10 renal
[53] = test system: U251 CNS
[54] = test system: UACC-257 melanoma
[55] = test system: UACC-62 melanoma
[56] = test system: UO-31 renal
[57] = test system: IGROV1 ovarian
[58] = test system: RPMI-8226 leukemia
[59] = test system: RXF 393 renal

For COc1ccc(C(=O)N(C(=O)N2CCN(c3ccccc3)CC2)S(=O)(=O)c2ccccc2)cc1, the TGI [1] was 90.5 µM, the TGI [2] was > 100 µM and the TGI [3] was 88.8 µM. The TGI [4] was 35.2 µM, the TGI [5] was > 100 µM and the TGI [6] was 54.2 µM. The TGI [7] was > 100 µM, the TGI [8] was 31.8 µM and the TGI [9] was 72.2 µM. The TGI [10] was 50.4 µM, the TGI [11] was > 100 µM and the TGI [12] was 42.1 µM. For the same compound, the TGI [13] was > 100 µM, the TGI [14] was 48.9 µM and the TGI [15] was > 100 µM. For the same compound, the TGI [16] was 72.3 µM, the TGI [17] was 79.5 µM and the TGI [18] was > 100 µM. For the same compound, the TGI [19] was 94.4 µM, the TGI [20] was > 100 µM and the TGI [21] was 38 µM. The TGI [22] was 42.6 µM, the TGI [23] was 93.4 µM and the TGI [24] was > 100 µM. The TGI [25] was 81.9 µM, the TGI [26] was > 100 µM and the TGI [27] was 65.4 µM. It also gave a TGI [28] of 46.5 µM, a TGI [29] of 58.8 µM and a TGI [30] of 73.2 µM. The TGI [31] was > 100 µM, the TGI [32] was 33.3 µM and the TGI [33] was 66.7 µM. The TGI [34] was > 100 µM, the TGI [35] was > 100 µM and the TGI [36] was 70.8 µM. The TGI [37] was 53.5 µM, the TGI [38] was > 100 µM and the TGI [39] was > 100 µM. The TGI [40] was > 100 µM, the TGI [41] was 35.9 µM and the TGI [42] was 35 µM. For the same compound, the TGI [43] was > 100 µM, the TGI [44] was 28 µM and the TGI [45] was > 100 µM. It also gave a TGI [46] of 55.9 µM, a TGI [47] of 74.9 µM and a TGI [48] of 63.8 µM. The TGI [49] was 42.8 µM, the TGI [50] was > 100 µM and the TGI [51] was 54 µM. The TGI [52] was > 100 µM, the TGI [53] was 35.3 µM and the TGI [54] was > 100 µM. The TGI [55] was 39.6 µM and the TGI [56] was 26.7 µM.
With CC(=O)C(=[N+]=[N-])C(=O)OCCOC(=O)C(=[N+]=[N-])C(C)=O the TGI [1] was > 1 µM, the TGI [2] was > 1 µM and the TGI [3] was > 1 µM. The TGI [4] was > 1 µM, the TGI [5] was > 1 µM and the TGI [7] was > 1 µM. For the same compound, the TGI [9] was > 1 µM, the TGI [10] was > 1 µM and the TGI [11] was > 1 µM. For the same compound, the TGI [12] was > 1 µM, the TGI [13] was > 1 µM and the TGI [14] was > 1 µM. The TGI [15] was > 1 µM, the TGI [16] was > 1 µM and the TGI [17] was > 1 µM. The TGI [18] was > 1 µM, the TGI [57] was > 1 µM and the TGI [19] was > 1 µM. For the same compound, the TGI [20] was > 1 µM, the TGI [21] was > 1 µM and the TGI [22] was > 1 µM. For the same compound, the TGI [23] was > 1 µM, the TGI [24] was > 1 µM and the TGI [25] was > 1 µM. The TGI [26] was > 1 µM, the TGI [27] was > 1 µM and the TGI [28] was > 1 µM. The TGI [29] was > 1 µM, the TGI [30] was > 1 µM and the TGI [31] was > 1 µM. The TGI [34] was > 1 µM, the TGI [36] was > 1 µM and the TGI [37] was > 1 µM. For the same compound, the TGI [38] was > 1 µM, the TGI [58] was > 1 µM and the TGI [59] was > 1 µM. The TGI [39] was > 1 µM, the TGI [40] was > 1 µM and the TGI [41] was > 1 µM. The TGI [42] was > 1 µM, the TGI [43] was > 1 µM and the TGI [44] was > 1 µM. The TGI [45] was > 1 µM, the TGI [46] was > 1 µM and the TGI [47] was > 1 µM. For the same compound, the TGI [48] was > 1 µM, the TGI [49] was > 1 µM and the TGI [51] was > 1 µM. For the same compound, the TGI [52] was > 1 µM, the TGI [53] was > 1 µM and the TGI [54] was > 1 µM. For the same compound, the TGI [55] was > 1 µM and the TGI [56] was > 1 µM.
O=C(O)C1(Cc2ccc3c(c2)CCC3)Cc2ccccc2C1=O (configuration not stated) was tested, and the TGI [1] was > 100 µM, the TGI [2] was > 100 µM and the TGI [3] was > 100 µM. For the same compound, the TGI [4] was > 100 µM, the TGI [5] was > 100 µM and the TGI [7] was > 100 µM. For the same compound, the TGI [8] was > 100 µM, the TGI [9] was > 100 µM and the TGI [10] was > 100 µM. The TGI [11] was > 100 µM, the TGI [12] was > 100 µM and the TGI [13] was > 100 µM. For the same compound, the TGI [14] was > 100 µM, the TGI [15] was > 100 µM and the TGI [16] was 87.3 µM. The TGI [17] was > 100 µM, the TGI [18] was > 100 µM and the TGI [57] was > 100 µM. The TGI [19] was > 100 µM, the TGI [20] was > 100 µM and the TGI [21] was > 100 µM. For the same compound, the TGI [22] was > 100 µM, the TGI [23] was > 100 µM and the TGI [24] was > 100 µM. The TGI [25] was > 100 µM, the TGI [26] was > 100 µM and the TGI [27] was > 100 µM. The TGI [28] was > 100 µM, the TGI [29] was > 100 µM and the TGI [30] was > 100 µM. The TGI [31] was > 100 µM, the TGI [33] was > 100 µM and the TGI [34] was > 100 µM. For the same compound, the TGI [35] was > 100 µM, the TGI [36] was > 100 µM and the TGI [37] was > 100 µM. The TGI [38] was > 100 µM, the TGI [58] was 92.2 µM and the TGI [59] was > 100 µM. For the same compound, the TGI [39] was > 100 µM, the TGI [40] was > 100 µM and the TGI [41] was > 100 µM. The TGI [42] was > 100 µM, the TGI [43] was > 100 µM and the TGI [44] was > 100 µM. The TGI [45] was > 100 µM, the TGI [46] was > 100 µM and the TGI [47] was > 100 µM. The TGI [48] was > 100 µM, the TGI [49] was > 100 µM and the TGI [50] was > 100 µM. The TGI [51] was > 100 µM, the TGI [52] was > 100 µM and the TGI [53] was > 100 µM. For the same compound, the TGI [54] was > 100 µM, the TGI [55] was > 100 µM and the TGI [56] was > 100 µM.
For Nc1nc(NCC2(CO)CCC2)cc(=O)[nH]1, the TGI [1] was > 100 µM, the TGI [2] was > 100 µM and the TGI [3] was > 100 µM. The TGI [5] was > 100 µM, the TGI [6] was > 100 µM and the TGI [7] was > 100 µM. The TGI [8] was > 100 µM, the TGI [9] was > 100 µM and the TGI [10] was > 100 µM. The TGI [11] was > 100 µM, the TGI [12] was > 100 µM and the TGI [13] was > 100 µM. For the same compound, the TGI [14] was > 100 µM, the TGI [15] was > 100 µM and the TGI [16] was > 100 µM. The TGI [17] was > 100 µM, the TGI [18] was > 100 µM and the TGI [57] was > 100 µM. The TGI [19] was > 100 µM, the TGI [20] was > 100 µM and the TGI [21] was > 100 µM. The TGI [22] was > 100 µM, the TGI [23] was > 100 µM and the TGI [24] was > 100 µM. The TGI [25] was > 100 µM, the TGI [26] was > 100 µM and the TGI [27] was > 100 µM. For the same compound, the TGI [28] was > 100 µM, the TGI [29] was > 100 µM and the TGI [30] was > 100 µM. For the same compound, the TGI [31] was > 100 µM, the TGI [32] was > 100 µM and the TGI [33] was > 100 µM. The TGI [34] was > 100 µM, the TGI [35] was > 100 µM and the TGI [36] was > 100 µM. For the same compound, the TGI [37] was > 100 µM, the TGI [38] was > 100 µM and the TGI [58] was > 100 µM. The TGI [59] was > 100 µM, the TGI [39] was > 100 µM and the TGI [40] was > 100 µM. For the same compound, the TGI [42] was > 100 µM, the TGI [43] was > 100 µM and the TGI [44] was > 100 µM. The TGI [45] was > 100 µM, the TGI [46] was > 100 µM and the TGI [47] was > 100 µM. For the same compound, the TGI [48] was > 100 µM, the TGI [49] was > 100 µM and the TGI [50] was > 100 µM. For the same compound, the TGI [51] was > 100 µM, the TGI [53] was > 100 µM and the TGI [54] was > 100 µM. The TGI [55] was > 100 µM and the TGI [56] was > 100 µM.
